Measurements: publication PMC6680510, “Benzotriazine Di-Oxide Prodrugs for Exploiting Hypoxia and Low Extracellular pH in Tumors” (Molecules, 2019)
Several values for one entry are separate records, joined by “and”; a condition that tells them apart may be missing. Identical values can stand only once. Like-named read-outs stand apart in the source and are kept apart here.

Tests used:
[1] = One-electron reduction potentials by pulse radiolysis; type: physicochemical; conditions: pH 7.0, equilibrium with redox indicator shown in square brackets
Description: One-electron reduction potentials (E^0′) were determined from the redox equilibria with methylviologen, MV^2+, (E^0′ = […], [34]), dimethyldiquat, V21^2+, (E^0′ = […], [35]), or triquat, TQ^2+, (E^0′ = −548 ± 7 mV [34]). […] Substituting the 3-alkanoic sidechain with the 3-aminoalkanoic sidechain on the BTO 1,4-dioxide lowers the E^0′, as does the addition of the cyclopentane ring. The combined effect is seen for 10a, where the E^0′ value is −565 mV, which is expected to be too low for significant bioreduction under hypoxia.
(§1) Time-resolved optical absorption and kinetic studies were carried out using the University of Auckland’s 4 MeV linear accelerator, which has been previously described. The one-electron reduction potentials of the compounds (A) and couple E^0′(A/A^−), versus normal hydrogen electrode, were determined at pH 7.0 (2.5 mM phosphate) by establishing redox equilibria within 50 μs between three mixtures of one-electron reduced A and the viologen reference compounds, MV^2+, TQ^2+ and V21^2+. The determined equilibrium constants were used to calculate the ΔE values using the Nernst equation, correcting for ionic strength effects, as described in the literature.

[2] = Pulse radiolysis of the radical anion (pKa, decay and oxidation kinetics); type: physicochemical
Description: The free radical chemistry of 7a was investigated by pulse radiolysis and electron paramagnetic resonance (EPR). […] The radical anion decayed slowly under anoxia at pH 7 with mixed kinetics (first-order rate constant of 78 ± 4 s^−1, second-order rate constant of 3.8 ± 0.7 × 10^7 M^−1 s^−1, Figure S3), broadly similar to SN30000 [24]. The second-order rate constant for oxidation of the radical anion of 7a by O2, 5.39 ± 0.40 × 10^6 M^−1 s^−1 (Figure S4), is consistent with the known dependence on E^0′ for BTOs.
as §1
Molecules 2019, 24, x FOR PEER REVIEW 3 of 8
Figure S2. Effect of pH on the change in radical absorption at 490 nm upon one-electron reduction of 7a ([…]) by the CO2.- radical anion following pulse radiolysis (3 Gy in 200 ns) of N2O-saturated solutions containing sodium formate (0.1 M) and buffers (10 mM). Data points, obtained ca. 20 ms […]
Figure S3. […]
dependence on increasing radiation dose (radical concentration) of the reciprocal of the first half-life of decay of the radical anion of 7a measured at 490 nm. […]
Figure S4. Dependence of the first-order rate constant measured at 490 nm for the decay of the radical anion of 7a at pH 7.0, k, on the concentration of O2 in solution following pulse radiolysis (10 Gy in 200 ns). […] The second order rate constant, kO2, calculated from the gradient

SiHa cells [3] = assay: IC50 assay (inhibition of proliferation, 4 h exposure, SRB); conditions: SiHa; for IC50: Homo sapiens, 4 h
Procedure, shortened: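 Cells exposed to compound for 4 h in titrated medium, then washed and regrown 5 days under standard conditions (oxia, pHe 7.4). Growth read by sulforhodamine B staining; IC50 from 4-parameter logistic regression of duplicate cultures.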

FaDu cells = assay: as above; type: cell-based; conditions: for IC50: Homo sapiens, 4 h
[4] = Protein binding by equilibrium dialysis (FBS, culture medium); type: in vitro ADME
Description: Protein binding of 7a in plasma from NIHIII mice and fetal bovine serum (FBS) assessed
by equilibrium dialysis using a 12-14KDa cut-off dialysis membrane (HTDialysis, Gales Ferry, CT) as
Briefly, 100 µL samples of undiluted plasma,
plasma diluted in PBS, and αMEM with or without FBS containing 7a at 100 μM were dialysed against
100 µL PBS or αMEM (pH 7.4) in an incubator (Innova-42, New Brunswick Scientific, US ) at 37°C
with shaking at 80 rpm for 6 h. Proteins were precipitated with 3 vol of ice-cold MeCN, the

SiHa and SiHa/POR cells = assay: IC50 in SiHa versus SiHa/POR cultures under anoxia; type: cell-based; conditions: 4 h under anoxia, pHe 7.4
Description: The lack of effect of POR over-expression on the reductive metabolism of the BTO acids in intact cells led us to compare the cytotoxicities of SN30000 (2), 4a, and 7a in SiHa/POR, and the parental line, under anoxia (Figure 6).
Drug exposure was for 4 h under anoxia, at pHe 7.4, with regrowth under aerobic conditions for 5 days before staining with SRB. Values are means and SEM for the two experiments, each with triplicate cultures at each drug concentration. TEXT PRINTED IN THE PICTURE: Cmpd 2: Ratio 6.75 ± 0.20 | Cmpd 4a: Ratio 3.40 ± 0.22 | Cmpd 7a: Ratio 2.67 ± 0.46

[5] = Solubility in AlphaMEM + 5% FBS, pH 7.4; conditions: culture medium (AlphaMEM + 5% FBS), pH 7.4, plasma or biological fluid, thermodynamic from solid
[6] = Measured pKa (potentiometric titration)
[7] = system: MDCK-II cells with forced expression of BCRP or Pgp; assay: IC50 under anoxia in cells with forced expression of efflux transporters; conditions: MDCK-II cell lines under anoxia, preliminary experiments
Description: expression of BCRP or Pgp.
Cells were seeded at 300 cells/well in DMEM with 10% FBS in 96 well plates in an
anaerobic chamber, allowed to attach for 2 h then exposed to drugs for 4 h under anoxia. Cells were
then washed with fresh medium and grown for 5 days under aerobic conditions before staining with
SRB. Values are mean ± SEM from 2 separate experiments.

SiHa cells [8] = assay: Cellular uptake in stirred aerobic single cell suspensions (HPLC, 3H-mannitol correction); conditions: for Observed Ci/Ce ratio: SiHa
Description: In these experiments, cell pellets were collected by centrifugation and ^3H-mannitol was used as a cell-excluded marker to enable correction for the entrapped extracellular medium.
Log-phase cultures were dissociated with trypsin/EDTA, followed by the addition of the medium with DNAase I (Sigma DN-25) at 100 μg/mL for 5 min at 37 °C to minimize clumping. The cell pellets were collected by centrifugation and resuspended in αMEM with 5% FBS at pH 7.4 or 6.5 to 2 × 10^6 cells/mL. Samples (12 mL) were equilibrated with magnetic stirring at 37 °C under flowing humidified 5% CO2/air or N2 (50–100 mL/min), as previously described [86]. After equilibration for 60 min, the compounds were added in 50 μL of DMSO. The samples (5 mL) were withdrawn 5 and 60 min later, where the cell pellets were then collected by centrifugation and 4 mL of the supernatant was discarded. The pellets were resuspended in the remaining 1 mL, transferred to microcentrifuge tubes containing 7 μL ^3H-mannitol (740 GBq/mmol, American Radiolabeled Chemicals Inc., St. Louis, MO) as an extracellular marker, and then centrifuged (11,000g × 30s). The supernatant was removed and frozen at −80 °C (extracellular samples) and the tubes were centrifuged again, and any remaining medium was carefully removed. Ice-cold MeOH (80 μL) was added to the pellets which were disrupted by pipetting and stored at −80 °C (intracellular samples). When these were thawed for HPLC analysis (Section 4.12), the volume of extracellular water trapped in the pellets was determined by the scintillation counting (PerkinElmer Tri-Carb B2910TR Liquid Scintillation) of 25 μL of each extracellular and intracellular sample in 3 mL of Emulsifier-Safe™ scintillation cocktail (PerkinElmer). The extracellular volume in each intracellular sample was used to correct the intracellular drug concentration as previously described [87].
The samples were analyzed using an Agilent 1200 HPLC with a diode array absorbance detector and autosampler maintained at 4 °C (Agilent Technologies). The frozen samples were thawed, then centrifuged (11,000g × 5 min), and then extracellular samples were injected directly (typically 20 μL), while for the intracellular samples 30 μL was mixed 1:1 with αMEM and 50 μL was injected. […] All calibration curves were linear (R^2 > 0.999). The column was an Agilent ZORBAX Eclipse (XDB-C18, 5u, 2.1 × 150 mm, Agilent Technologies) with a flow rate of 0.4 mL/min. For SN30000 (2), the mobile phase was a mixture of 80% MeCN/water v/v (A), and a 45 mM formate buffer at a pH 4.5, eluting with a linear gradient of 5–100% A over 18 min. The same method was used for the BTO acids, except for 4a, where the aqueous mobile phase pH was reduced to 3.5.
Values are mean and SEM for 3 replicates. ND: Not detected.

O=C(O)CCc1n[n+]([O-])c2cc3c(cc2[n+]1[O-])CCC3 [Compound 7a, 3-(2-Carboxyethyl)-7,8-dihydro-6H-indeno[5,6-e][1,2,4]triazine 1,4-Dioxide]
E^0′ one-electron reduction potential [1]: −463 mV and −463 ± 8 [MV^2+, V21^2+] mV
First-order rate constant of radical anion decay ([2]; anoxia, pH 7): 78 ± 4 s⁻¹
Second-order rate constant of radical anion decay ([2]; anoxia, pH 7): 3.8 ± 0.7 × 10^7 M^−1 s^−1
Second-order rate constant for oxidation of the radical anion by O2 ([2]; pH 7.0): 5.39 ± 0.40 × 10^6 M^−1 s^−1
IC50 (SiHa cells [3]; read-out: Anoxic IC50, SiHa, pHe 6.5, 4 h, anoxic): 428 ± 152 µM
IC50 (SiHa cells [3]; read-out: Anoxic IC50, SiHa, pHe 7.4, 4 h, anoxic): 864 ± 277 µM
IC50 (SiHa cells [3]; read-out: Oxic IC50, SiHa, pHe 6.5, 4 h, oxic): 1890 ± 308 µM
IC50 (SiHa cells [3]; read-out: Oxic IC50, SiHa, pHe 7.4, 4 h, oxic): 3720 ± 830 µM
TMR (overall TME ratio = oxic IC50 pHe 7.4/anoxic IC50 pHe 6.5) (SiHa cells [3]): 8.7 ± 3.6
PCR Anoxic (IC50 at pHe 7.4/IC50 at pHe 6.5) (SiHa cells [3]; anoxic): 2.02 ± 0.97
PCR oxic (IC50 at pHe 7.4/IC50 at pHe 6.5) (SiHa cells [3]; oxic): 1.97 ± 0.55
ACR (anoxic cytotoxicity ratio = oxic IC50/anoxic IC50) (SiHa cells [3]; pHe 6.5): 4.41 ± 1.73
ACR (anoxic cytotoxicity ratio = oxic IC50/anoxic IC50) (SiHa cells [3]; pHe 7.4): 4.31 ± 1.58
TMR (oxic IC50 pHe 7.4/anoxic IC50 pHe 6.5) (FaDu cells): >7.9
IC50 (FaDu cells; pHe 6.5, 4 h, anoxic, read-out: Anoxic IC50): 885 ± 515 µM
IC50 (FaDu cells; pHe 6.5, 4 h, oxic, read-out: Oxic IC50): 4910 ± 1600 µM
IC50 (FaDu cells; pHe 7.4, 4 h, anoxic, read-out: Anoxic IC50): 3260 ± 1070 µM
IC50 (FaDu cells; pHe 7.4, 4 h, oxic, read-out: Oxic IC50): > 7000 µM
PCR oxic (IC50 at pHe 7.4/IC50 at pHe 6.5) (FaDu cells; oxic): >1.4
ACR (oxic IC50/anoxic IC50) (FaDu cells; pHe 6.5): 5.55 ± 3.70
ACR (oxic IC50/anoxic IC50) (FaDu cells; pHe 7.4): > 2
Protein binding in culture medium with 5 or 10% FBS ([4]; 100 μM): not detectable
fraction unbound at 6 h, 100 µM ([4]; bovine, fetal bovine serum (FBS), pH 7.4, FBS, read-out: Protein binding (bound) in FBS (converted)): 0.38
IC50 ratio SiHa / SiHa/POR (fold lower IC50 in POR cell line) (SiHa and SiHa/POR cells): 2.67 ± 0.46 and 2.7
solubility [5]: 24.8 mM
pKa [6]: 4.16
Effect of overexpression of BCRP or Pgp efflux transporters on sensitivity [7]: no effect
Observed Ci/Ce ratio (SiHa cells [8]; pHe 6.5, approximate value quoted in text): ~ 0.7
Observed Ci/Ce ratio (SiHa cells [8]; pHe 7.4, approximate value quoted in text): ~ 0.1
Ci ratio (Ci at pHe 6.5/Ci at pHe 7.4) (SiHa cells [8]; aerobic SiHa suspensions, 5 min): 3.9 ± 1.3 fold
Ci/Ce, pHe 6.5 Obs 5 min (SiHa cells [8]; aerobic SiHa suspensions, pHe 6.5, 5 min): 0.70 ± 0.03
Ci/Ce, pHe 6.5 Obs 60 min (SiHa cells [8]; aerobic SiHa suspensions, pHe 6.5, 60 min): 0.75 ± 0.03
Ci/Ce, pHe 7.4 Obs 5 min (SiHa cells [8]; aerobic SiHa suspensions, pHe 7.4, 5 min): 0.21 ± 0.08
Ci/Ce, pHe 7.4 Obs 60 min (SiHa cells [8]; aerobic SiHa suspensions, pHe 7.4, 60 min): <0.1
